Data as given in patent publication US9302991B2, “Arylamide derivatives as TTX-S blockers” (RaQualia Pharma Inc., priority 2010, dated 2016).

These compounds were tested against T1, human Nav1.7 channels (Homo sapiens, UniProt Q15858) (assay: FRET assay, human Nav1.7 (EFS on FDSS)). Conditions: CHO cells expressing human Nav1.7, read-out: IC50 against Nav1.7.
T1 construct: expressed in transfected cells; host or cells: CHO
Assay type: cell-based
Summary of the method: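 IC50 was derived from normalized 440 nm fluorescence ratios of the EFS-evoked membrane-potential response read on FDSS. Recombinant CHO cells were sequentially dye-loaded with coumarin/oxonol FRET pair at room temperature in pH 7.4 buffer before compound addition.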

T1 sequence (Q15858 whole entry): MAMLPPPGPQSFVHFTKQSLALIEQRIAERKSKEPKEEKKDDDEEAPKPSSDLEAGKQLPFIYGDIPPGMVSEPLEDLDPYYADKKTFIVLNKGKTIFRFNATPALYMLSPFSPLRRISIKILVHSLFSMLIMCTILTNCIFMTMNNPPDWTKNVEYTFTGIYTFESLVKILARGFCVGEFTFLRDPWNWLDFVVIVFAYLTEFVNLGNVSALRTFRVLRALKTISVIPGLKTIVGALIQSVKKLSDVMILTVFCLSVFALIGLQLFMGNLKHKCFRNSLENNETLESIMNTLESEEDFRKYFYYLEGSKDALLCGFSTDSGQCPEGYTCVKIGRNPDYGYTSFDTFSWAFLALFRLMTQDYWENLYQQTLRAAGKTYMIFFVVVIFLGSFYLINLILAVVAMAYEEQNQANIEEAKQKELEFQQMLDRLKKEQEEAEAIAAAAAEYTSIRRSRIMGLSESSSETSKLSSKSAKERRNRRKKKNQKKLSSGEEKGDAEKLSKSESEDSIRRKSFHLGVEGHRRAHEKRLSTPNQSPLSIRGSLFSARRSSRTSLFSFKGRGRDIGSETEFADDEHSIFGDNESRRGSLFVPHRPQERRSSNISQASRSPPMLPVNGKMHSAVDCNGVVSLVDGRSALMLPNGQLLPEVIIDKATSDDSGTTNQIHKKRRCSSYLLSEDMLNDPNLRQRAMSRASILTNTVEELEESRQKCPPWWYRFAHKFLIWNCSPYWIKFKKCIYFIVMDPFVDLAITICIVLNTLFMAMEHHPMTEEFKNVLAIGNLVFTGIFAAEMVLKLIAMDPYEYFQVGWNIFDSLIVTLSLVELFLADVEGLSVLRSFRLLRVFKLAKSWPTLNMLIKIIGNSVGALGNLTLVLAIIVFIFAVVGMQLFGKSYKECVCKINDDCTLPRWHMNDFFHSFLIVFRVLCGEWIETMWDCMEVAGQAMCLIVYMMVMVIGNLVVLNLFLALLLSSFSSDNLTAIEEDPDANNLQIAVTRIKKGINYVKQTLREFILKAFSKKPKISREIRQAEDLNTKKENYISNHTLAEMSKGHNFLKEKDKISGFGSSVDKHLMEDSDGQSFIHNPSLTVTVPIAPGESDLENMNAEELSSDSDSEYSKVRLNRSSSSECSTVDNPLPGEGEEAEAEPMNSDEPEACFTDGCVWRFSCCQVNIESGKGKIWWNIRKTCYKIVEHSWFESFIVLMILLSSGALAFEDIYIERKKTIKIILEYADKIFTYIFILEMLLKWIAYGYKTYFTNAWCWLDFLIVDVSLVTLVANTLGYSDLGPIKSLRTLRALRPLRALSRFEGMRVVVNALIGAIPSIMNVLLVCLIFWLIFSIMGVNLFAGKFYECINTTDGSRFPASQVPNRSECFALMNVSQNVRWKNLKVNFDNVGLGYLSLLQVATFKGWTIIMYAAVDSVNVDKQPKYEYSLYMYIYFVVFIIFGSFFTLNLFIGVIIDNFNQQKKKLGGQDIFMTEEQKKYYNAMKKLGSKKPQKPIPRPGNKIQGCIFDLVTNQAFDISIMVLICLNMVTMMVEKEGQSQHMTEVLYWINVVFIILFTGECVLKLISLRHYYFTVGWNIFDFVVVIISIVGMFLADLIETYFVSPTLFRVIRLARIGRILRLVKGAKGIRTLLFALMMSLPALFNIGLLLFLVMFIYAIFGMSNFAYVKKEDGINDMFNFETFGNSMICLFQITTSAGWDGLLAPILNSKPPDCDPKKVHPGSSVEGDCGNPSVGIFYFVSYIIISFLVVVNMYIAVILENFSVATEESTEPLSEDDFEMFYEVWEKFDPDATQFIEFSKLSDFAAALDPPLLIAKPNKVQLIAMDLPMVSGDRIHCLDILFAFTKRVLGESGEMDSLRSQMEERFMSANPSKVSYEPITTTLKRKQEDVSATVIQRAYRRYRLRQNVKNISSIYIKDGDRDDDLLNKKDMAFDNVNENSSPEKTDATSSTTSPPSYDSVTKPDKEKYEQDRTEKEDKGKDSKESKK

Structure (SMILES) | IC50
Cc1cc(C(=O)NCc2ccc(OCC(F)(F)F)nc2)cc(NC(=O)C2CC2)n1 [Example 822, 2-(cyclopropanecarboxamido)-6-methyl-N-((6-(2,2,2-trifluoroethoxy)pyridin-3-yl)methyl)isonicotinamide] | < 1000 nM
Cc1cc(C(=O)NCc2cnc(OCC(F)F)c(Cl)c2)cc(NC(=O)C2CC2)n1 [Example 826, N-((5-chloro-6-(2,2-difluoroethoxy)pyridin-3-yl)methyl)-2-(cyclopropanecarboxamido)-6-methylisonicotinamide] | < 1000 nM
Cc1cc(C(=O)NCc2ccc(OCC(F)(F)C(F)(F)F)nc2)cc(NC(=O)C2CC2)n1 [Example 827, 2-(cyclopropanecarboxamido)-6-methyl-N-((6-(2,2,3,3,3-pentafluoropropoxy)pyridin-3-yl)methyl)isonicotinamide] | < 1000 nM
Cc1cc(C(=O)NCc2cccc(C(F)(F)F)c2)cc(NC(=O)C2CC2)n1 [Example 852, 2-(cyclopropanecarboxamido)-6-methyl-N-(3-(trifluoromethyl)benzyl)isonicotinamide] | < 1000 nM
COc1cc(OC(F)(F)F)ccc1CNC(=O)c1cc(C)nc(NC(C)=O)c1 [Example 870, 2-acetamido-N-(2-methoxy-4-(trifluoromethoxy)benzyl)-6-methylisonicotinamide] | < 1000 nM
COc1cc(OC(F)(F)F)ccc1CNC(=O)c1cc(C)nc(NC(=O)C(C)C)c1 [Example 871, 2-isobutyramido-N-(2-methoxy-4-(trifluoromethoxy)benzyl)-6-methylisonicotinamide] | < 1000 nM
Cc1cc(C(=O)NCc2cccc(C(F)(F)F)c2F)cc(NC(=O)C(C)C)n1 [Example 876, N-(2-fluoro-3-(trifluoromethyl)benzyl)-2-isobutyramido-6-methylisonicotinamide] | < 1000 nM
Cc1cc(C(=O)NCc2cccc(C(F)(F)F)c2Cl)cc(NC(=O)C(C)C)n1 [Example 878, N-(2-chloro-3-(trifluoromethyl)benzyl)-2-isobutyramido-6-methylisonicotinamide] | < 1000 nM
Cc1cc(C(=O)NCc2cccc(C(F)(F)F)c2C)cc(NC(=O)C(C)C)n1 [Example 879, 2-isobutyramido-6-methyl-N-(2-methyl-3-(trifluoromethyl)benzyl)isonicotinamide] | < 1000 nM
COc1cc(CNC(=O)c2cc(C)nc(NC(C)=O)c2)ccc1OCC(F)(F)F [Example 884, 2-acetamido-N-(3-methoxy-4-(2,2,2-trifluoroethoxy)benzyl)-6-methylisonicotinamide] | < 1000 nM
Cc1cc(C(=O)NCc2cnc(OCC(F)(F)F)c(Br)c2)cc(NC(=O)C2CC2)n1 [Example 900, N-((5-bromo-6-(2,2,2-trifluoroethoxy)pyridin-3-yl)methyl)-2-(cyclopropanecarboxamido)-6-methylisonicotinamide] | < 1000 nM
CCc1cc(CNC(=O)c2ccnc(NC(=O)C3CC3)n2)cnc1OCC(F)F [Example 912, 2-(cyclopropanecarboxamido)-N-((6-(2,2-difluoroethoxy)-5-ethylpyridin-3-yl)methyl)pyrimidine-4-carboxamide] | < 1000 nM

Results, then the compound that gave them:

IC50 | Structure (SMILES)
< 1000 nM | Cc1cc(C(=O)NCc2cnc(OCC(F)F)c(C)c2)cc(NC(=O)C2CC2)n1 [Example 851, 2-(cyclopropanecarboxamido)-N-((6-(2,2-difluoroethoxy)-5-methylpyridin-3-yl)methyl)-6-methylisonicotinamide]
< 1000 nM | COc1cc(OC(F)(F)F)ccc1CNC(=O)c1ccnc(NC(=O)C(C)C)c1 [Example 869, 2-isobutyramido-N-(2-methoxy-4-(trifluoromethoxy)benzyl)isonicotinamide]
< 1000 nM | CCC(=O)Nc1cc(C(=O)NCc2ccc(OCC(F)(F)F)c(OC)c2)ccn1 [Example 882, N-(3-methoxy-4-(2,2,2-trifluoroethoxy)benzyl)-2-propionamidoisonicotinamide]
< 1000 nM | COc1cc(CNC(=O)c2cc(C)nc(NC(=O)C(C)C)c2)ccc1OCC(F)(F)F [Example 885, 2-isobutyramido-N-(3-methoxy-4-(2,2,2-trifluoroethoxy)benzyl)-6-methylisonicotinamide]
< 1000 nM | CC(C)C(=O)Nc1cc(C(=O)NCc2cnc(OCC(F)(F)F)c(Br)c2)ccn1 [Example 897, N-((5-bromo-6-(2,2,2-trifluoroethoxy)pyridin-3-yl)methyl)-2-isobutyramidoisonicotinamide]
< 1000 nM | Cc1cc(C(=O)NCc2cnc(OCC(F)(F)F)c(Br)c2)cc(NC(=O)C(C)C)n1 [Example 901, N-((5-bromo-6-(2,2,2-trifluoroethoxy)pyridin-3-yl)methyl)-2-isobutyramido-6-methylisonicotinamide]
< 1000 nM | CCc1cc(CNC(=O)c2ccnc(NC(=O)C(C)C)c2)cnc1OCC(F)F [Example 910, N-((6-(2,2-difluoroethoxy)-5-ethylpyridin-3-yl)methyl)-2-isobutyramidoisonicotinamide]
< 1000 nM | CCc1cc(CNC(=O)c2ccnc(NC(=O)C3CC3)c2)cnc1OCC(F)F [Example 931, 2-(cyclopropanecarboxamido)-N-((6-(2,2-difluoroethoxy)-5-ethylpyridin-3-yl)methyl)isonicotinamide]
< 1000 nM | CCc1cc(CNC(=O)c2cc(C)nc(NC(C)=O)c2)cnc1OCC(F)F [Example 932, 2-acetamido-N-((6-(2,2-difluoroethoxy)-5-ethylpyridin-3-yl)methyl)-6-methylisonicotinamide]
< 1000 nM | CCCC(=O)Nc1cc(C(=O)NCc2cnc(OCC(F)F)c(CC)c2)ccn1 [Example 933, 2-butyramido-N-((6-(2,2-difluoroethoxy)-5-ethylpyridin-3-yl)methyl)isonicotinamide]
< 1000 nM | CC(=O)Nc1cc(C(=O)NCc2ccc(OCC(F)F)c(C)c2)ccn1 [Example 988, 2-acetamido-N-(4-(2,2-difluoroethoxy)-3-methylbenzyl)isonicotinamide]
< 1000 nM | CCC(=O)Nc1cc(C(=O)NCc2ccc(OCC(F)F)c(C)c2)ccn1 [Example 989, N-(4-(2,2-difluoroethoxy)-3-methylbenzyl)-2-propionamidoisonicotinamide]
< 1000 nM | Cc1cc(CNC(=O)c2ccnc(NC(=O)C3CC3)c2)ccc1OCC(F)F [Example 990, 2-(cyclopropanecarboxamido)-N-(4-(2,2-difluoroethoxy)-3-methylbenzyl)isonicotinamide]
< 1000 nM | Cc1cc(CNC(=O)c2ccnc(NC(=O)C(C)C)c2)ccc1OCC(F)F [Example 991, N-(4-(2,2-difluoroethoxy)-3-methylbenzyl)-2-isobutyramidoisonicotinamide]
< 1000 nM | Cc1cc(CNC(=O)c2ccnc(NC(=O)C3CC3)n2)ccc1OCC(F)F [Example 992, 2-(cyclopropanecarboxamido)-N-(4-(2,2-difluoroethoxy)-3-methylbenzyl)pyrimidine-4-carboxamide]
< 1000 nM | CC(=O)Nc1cc(C(=O)NCc2ccc(OCC(F)F)c(C)c2)cc(C)n1 [Example 993, 2-acetamido-N-(4-(2,2-difluoroethoxy)-3-methylbenzyl)-6-methylisonicotinamide]
< 1000 nM | Cc1cc(C(=O)NCc2ccc(OCC(F)F)c(C)c2)cc(NC(=O)C(C)C)n1 [Example 994, N-(4-(2,2-difluoroethoxy)-3-methylbenzyl)-2-isobutyramido-6-methylisonicotinamide]
